Values quoted from earlier work in patent publication US20100221818A1, “Device for the extemporaneous preparation of active preparations” (ALAXIA, priority 2009, published 2010).

Settings: in the absence of peroxidase and/or of hydrogen peroxide

half-life: approximately 24 hours
Compound: N#CSO [hypothiocyanite]
